Assay results published in patent US20240199597A1, “SMALL MOLECULES FOR THE TREATMENT OF KINASE-RELATED DISEASES” (Athos Therapeutics, Inc., priority 2021, published 2024).

Experiments:
786-O = assay: Cancer cytotoxicity assay (Real-Time-Glo cell viability), 786-O; type: cell-based; conditions: Homo sapiens, 786-0; kidney cancer, 72 hr
Description: (§1) The cytotoxicity of Compounds 1, 3, 4, 6, 7, 8, 9, 10, 12 and 13 against cancer cell lines was determined. To determine the optimal plating density for cell viability assays, for each cell line, cells were counted and diluted to final densities of 2.5, 5, 10 and 20 thousand per 100 μL of their respective growth media per well in 96 well plates. The Promega Real-Time-Glo cell viability kit was used to determine the optimal concentration for cell plating so that each cell line would be within the linear part of its growth curve after 72 hrs in culture. For the determination of test compound IC50s, different cancer cell lines were plated in 96 well plates in the pre-determined optimal density for each cell line. Test compounds were then added at different concentrations for the creation of six-point curve and cell density was determined using the Promega Real-Time-Glo cell viability kit after 24, 48, and 72 hrs in culture.

MV4-11 = assay: Cancer cytotoxicity assay (Real-Time-Glo cell viability), MV4-11; type: cell-based; conditions: Homo sapiens, leukemia cell, 72 hr
Description: as §1

A-498 = assay: Cancer cytotoxicity assay (Real-Time-Glo cell viability), A-498; type: cell-based; conditions: Homo sapiens, A498; kidney cancer, 72 hr
Description: as §1

HCT-116 = assay: Cancer cytotoxicity assay (Real-Time-Glo cell viability), HCT-116; type: cell-based; conditions: Homo sapiens, colorectal cancer cell line, 72 hr
Description: as §1

Kasumi-1 = assay: Cancer cytotoxicity assay (Real-Time-Glo cell viability), Kasumi-1; type: cell-based; conditions: Homo sapiens, leukemia cell, 72 hr
Description: as §1

HT-29 = assay: Cancer cytotoxicity assay (Real-Time-Glo cell viability), HT-29; type: cell-based; conditions: Homo sapiens, colorectal cancer cell line, 72 hr
Description: as §1

SKOV-3 = assay: Cancer cytotoxicity assay (Real-Time-Glo cell viability), SKOV-3; type: cell-based; conditions: Homo sapiens, SK-OV-3; ovarian cancer cell line, 72 hr
Description: as §1

Kasumi-3 = assay: Cancer cytotoxicity assay (Real-Time-Glo cell viability), Kasumi-3; type: cell-based; conditions: leukemia cell, 72 hr
Description: as §1

FLT3 = target: T1, FLT3 (Homo sapiens, UniProt P36888); assay: Kinase assay (Eurofins DiscoverX KinaseProfiler / KdElect), FLT3; type: binding; conditions: read-out: FLT3 (Kd50 nM)
T1 construct: purchased Eurofins DiscoverX (contract service)
T1 sequence (P36888 27-993): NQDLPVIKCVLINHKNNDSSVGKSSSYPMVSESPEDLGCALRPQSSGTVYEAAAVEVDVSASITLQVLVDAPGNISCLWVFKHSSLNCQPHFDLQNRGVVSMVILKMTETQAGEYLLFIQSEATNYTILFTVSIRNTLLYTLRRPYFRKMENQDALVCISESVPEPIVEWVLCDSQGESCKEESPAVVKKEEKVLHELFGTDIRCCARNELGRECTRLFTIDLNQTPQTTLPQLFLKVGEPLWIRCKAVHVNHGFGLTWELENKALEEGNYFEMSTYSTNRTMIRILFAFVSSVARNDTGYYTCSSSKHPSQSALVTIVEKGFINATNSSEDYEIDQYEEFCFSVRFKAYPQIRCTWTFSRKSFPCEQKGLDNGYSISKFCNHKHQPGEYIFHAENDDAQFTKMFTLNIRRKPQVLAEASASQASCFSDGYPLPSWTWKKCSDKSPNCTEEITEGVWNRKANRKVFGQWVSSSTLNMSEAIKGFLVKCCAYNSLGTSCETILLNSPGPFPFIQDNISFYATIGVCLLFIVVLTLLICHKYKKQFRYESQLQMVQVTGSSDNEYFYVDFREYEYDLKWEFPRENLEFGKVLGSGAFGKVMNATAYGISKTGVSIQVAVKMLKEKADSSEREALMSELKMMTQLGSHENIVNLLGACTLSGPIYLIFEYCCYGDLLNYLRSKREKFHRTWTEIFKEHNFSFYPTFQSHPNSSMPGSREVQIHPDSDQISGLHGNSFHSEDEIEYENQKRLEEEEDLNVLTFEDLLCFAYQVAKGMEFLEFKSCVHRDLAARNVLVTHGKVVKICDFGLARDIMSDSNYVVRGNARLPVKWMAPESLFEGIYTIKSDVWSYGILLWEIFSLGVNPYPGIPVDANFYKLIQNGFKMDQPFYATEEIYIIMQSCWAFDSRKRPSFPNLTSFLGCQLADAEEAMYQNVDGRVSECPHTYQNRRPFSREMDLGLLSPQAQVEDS
Description: Stock solutions of the compounds being evaluated were prepared. The IC50 values were determined by the Eurofins DiscoverX services using either the KinaseProfiler or the KdElect kinase activity detection assays.

PLK4 = target: T2, PLK4 (Homo sapiens, UniProt O00444); assay: Kinase inhibition assay (Eurofins DiscoverX KinaseProfiler / KdElect), PLK4; type: biochemical
T2 construct: purchased Eurofins DiscoverX (contract service)
T2 sequence (O00444 1-970): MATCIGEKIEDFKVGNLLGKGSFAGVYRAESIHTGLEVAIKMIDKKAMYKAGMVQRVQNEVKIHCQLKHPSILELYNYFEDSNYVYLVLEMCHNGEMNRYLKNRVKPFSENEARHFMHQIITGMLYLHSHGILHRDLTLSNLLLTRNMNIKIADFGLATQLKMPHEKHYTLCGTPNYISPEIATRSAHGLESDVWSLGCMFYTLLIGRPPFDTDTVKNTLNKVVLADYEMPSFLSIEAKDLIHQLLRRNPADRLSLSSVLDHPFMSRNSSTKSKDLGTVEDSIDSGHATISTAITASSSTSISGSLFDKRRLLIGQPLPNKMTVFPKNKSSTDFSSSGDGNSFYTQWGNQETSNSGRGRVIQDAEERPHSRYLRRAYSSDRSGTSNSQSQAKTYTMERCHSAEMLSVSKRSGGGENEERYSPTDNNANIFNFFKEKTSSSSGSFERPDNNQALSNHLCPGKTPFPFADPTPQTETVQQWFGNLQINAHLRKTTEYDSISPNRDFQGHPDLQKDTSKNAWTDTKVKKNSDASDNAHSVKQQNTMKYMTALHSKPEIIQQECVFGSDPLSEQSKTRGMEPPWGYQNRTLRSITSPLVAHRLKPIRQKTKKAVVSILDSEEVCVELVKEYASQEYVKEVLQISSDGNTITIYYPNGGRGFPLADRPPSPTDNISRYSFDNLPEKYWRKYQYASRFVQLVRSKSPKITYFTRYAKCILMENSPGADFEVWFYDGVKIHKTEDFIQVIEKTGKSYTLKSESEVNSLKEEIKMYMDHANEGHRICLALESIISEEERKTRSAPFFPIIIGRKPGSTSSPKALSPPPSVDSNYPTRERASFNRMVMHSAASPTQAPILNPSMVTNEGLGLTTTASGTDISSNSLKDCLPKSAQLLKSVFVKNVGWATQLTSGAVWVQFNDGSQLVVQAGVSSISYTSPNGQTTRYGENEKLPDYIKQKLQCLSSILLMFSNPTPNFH
Description: (§2) The activity of Compounds 1, 3, 4, 6, 7, 8, 9, 10 and 13 in inhibiting CLK1, CLK4, PLK4, and FLT3 kinases was determined. Stock solutions of the compounds being evaluated were prepared. The IC50 values were determined by the Eurofins DiscoverX services using either the KinaseProfiler or the KdElect kinase activity detection assays.

CLK4 = target: T3, CLK4 (Homo sapiens, UniProt Q9HAZ1); assay: Kinase inhibition assay (Eurofins DiscoverX KinaseProfiler / KdElect), CLK4; type: biochemical
T3 construct: purchased Eurofins DiscoverX (contract service)
Description: as §2

CLK1 = target: T4, CLK1 (Homo sapiens, UniProt P49759); assay: Kinase inhibition assay (Eurofins DiscoverX KinaseProfiler / KdElect), CLK1; type: biochemical
T4 construct: purchased Eurofins DiscoverX (contract service)
Description: as §2

OV-90 = assay: Cancer cytotoxicity assay (Real-Time-Glo cell viability), OV-90; type: cell-based; conditions: Homo sapiens, ovarian cancer cell line, 72 hr
Description: as §1

T3 sequence (Q9HAZ1 whole entry): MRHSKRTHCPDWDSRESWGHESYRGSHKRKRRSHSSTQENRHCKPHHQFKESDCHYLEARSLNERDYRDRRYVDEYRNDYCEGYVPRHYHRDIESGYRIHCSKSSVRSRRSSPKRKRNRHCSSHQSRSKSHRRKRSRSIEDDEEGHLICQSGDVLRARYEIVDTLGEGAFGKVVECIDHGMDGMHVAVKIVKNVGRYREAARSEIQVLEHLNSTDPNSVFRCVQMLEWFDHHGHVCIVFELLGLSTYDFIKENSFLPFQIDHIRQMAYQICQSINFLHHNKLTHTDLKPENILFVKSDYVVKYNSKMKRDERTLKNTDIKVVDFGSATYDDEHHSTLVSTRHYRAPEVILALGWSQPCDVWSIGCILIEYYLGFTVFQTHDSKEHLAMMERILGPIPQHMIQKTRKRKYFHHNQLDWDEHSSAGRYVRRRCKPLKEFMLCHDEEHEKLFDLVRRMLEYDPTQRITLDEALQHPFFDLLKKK
T4 sequence (P49759 whole entry): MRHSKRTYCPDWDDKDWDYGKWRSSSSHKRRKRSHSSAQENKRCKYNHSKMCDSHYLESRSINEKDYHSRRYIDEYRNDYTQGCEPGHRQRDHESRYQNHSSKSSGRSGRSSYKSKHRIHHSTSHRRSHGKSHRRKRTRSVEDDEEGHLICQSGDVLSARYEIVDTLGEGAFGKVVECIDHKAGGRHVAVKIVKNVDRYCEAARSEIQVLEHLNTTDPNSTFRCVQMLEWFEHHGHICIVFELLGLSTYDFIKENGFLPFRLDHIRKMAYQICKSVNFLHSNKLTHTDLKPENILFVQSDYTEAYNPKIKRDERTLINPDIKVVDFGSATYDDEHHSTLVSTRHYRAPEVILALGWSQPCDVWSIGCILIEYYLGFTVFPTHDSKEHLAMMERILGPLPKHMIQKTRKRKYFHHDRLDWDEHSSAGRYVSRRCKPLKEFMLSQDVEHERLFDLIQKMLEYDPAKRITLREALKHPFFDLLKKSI

SMILES | Kd (FLT3) [µM] | IC50 (PLK4) [nM] | IC50 (CLK4) [nM] | IC50 (CLK1) [nM] | kinase selectivity (CLK1; among CLK1, CLK4, PLK4, FLT3) | IC50 (786-O) [nM] | IC50 (MV4-11) [nM] | IC50 (A-498) [nM] | IC50 (HCT-116) [nM] | IC50 (Kasumi-1) [nM] | IC50 (HT-29) [nM] | IC50 (SKOV-3) [nM] | IC50 (Kasumi-3) [nM] | IC50 (OV-90) [nM]
COc1cc2c(Nc3cc(C)[nH]n3)nc(N3CCCC3)nc2cc1OCCCN1CCCC1 [Compound 1, 6-Methoxy-N-(5-methyl-1H-pyrazol-3-yl)-2-(pyrrolidin-1-yl)-7-(3-(pyrrolidin-1-yl)propoxy)quinazolin-4-amine] | > 10 | > 10000 | 5000 to 10000 | < 1000 | selective CLK1/4 inhibitor | 5000 to 10000 | < 1000 | 1000 to 5000 | 1000 to 5000 | 1000 to 5000 | 5000 to 10000 | 1000 to 5000 | 5000 to 10000 | 1000 to 5000
COc1cc2c(Nc3nnc(C)s3)nc(N3CCC(F)(F)CC3)nc2cc1OCCCN1CCCC1 [Compound 12, N-(2-(4,4-difluoropiperidin-1-yl)-6-methoxy-7-(3-(pyrrolidin-1-yl)propoxy)quinazolin-4-yl)-5-methyl-1,3,4-thiadiazol-2-amine] |  |  |  |  |  | 5000 to 10000 | 1000 to 5000 | 1000 to 5000 | 1000 to 5000 | 1000 to 5000 | 1000 to 5000 | 1000 to 5000 | 1000 to 5000 | 1000 to 5000
COc1cc2c(Nc3cc(C)[nH]n3)nc(N3CCC(F)(F)CC3)nc2cc1OCCCN1CCCC1 [Compound 3, 2-(4,4-difluoropiperidin-1-yl)-6-methoxy-N-(5-methyl-1H-pyrazol-3-yl)-7-(3-(pyrrolidin-1-yl)propoxy)quinazolin-4-amine] | 1 to 5 | < 1000 | < 1000 | < 1000 |  | 5000 to 10000 | 1000 to 5000 | 5000 to 10000 | 1000 to 5000 | > 10000 | 5000 to 10000 | 1000 to 5000 | 5000 to 10000 | 1000 to 5000

Second part, led by results:

Kd (FLT3) [µM] | IC50 (PLK4) [nM] | IC50 (CLK4) [nM] | IC50 (CLK1) [nM] | kinase selectivity (CLK1; among CLK1, CLK4, PLK4, FLT3) | SMILES | IC50 (786-O) [nM] | IC50 (MV4-11) [nM] | IC50 (A-498) [nM] | IC50 (HCT-116) [nM] | IC50 (Kasumi-1) [nM] | IC50 (HT-29) [nM] | IC50 (SKOV-3) [nM] | IC50 (Kasumi-3) [nM] | IC50 (OV-90) [nM]
> 10 | > 10000 | < 1000 | < 1000 |  | COc1cc2c(Nc3cc(C(C)(C)C)[nH]n3)nc(N3CCC(F)(F)CC3)nc2cc1OCCCN1CCCC1 [Compound 7, N-(5-(tert-butyl)-1H-pyrazol-3-yl)-2-(4,4-difluoropiperidin-1-yl)-6-methoxy-7-(3-(pyrrolidin-1-yl)propoxy)quinazolin-4-amine] | 1000 to 5000 | 1000 to 5000 | 1000 to 5000 | 1000 to 5000 | 1000 to 5000 | 1000 to 5000 | 1000 to 5000 | 1000 to 5000 | 1000 to 5000
 | 1000 to 5000 | < 1000 | < 1000 |  | COc1cc2c(Nc3cc(C4CCC4)[nH]n3)nc(N3CCC(F)(F)CC3)nc2cc1OCCCN1CCCC1 [Compound 10, N-(5-cyclobutyl-1H-pyrazol-3-yl)-2-(4,4-difluoropiperidin-1-yl)-6-methoxy-7-(3-(pyrrolidin-1-yl)propoxy)quinazolin-4-amine] | 1000 to 5000 | < 1000 | 1000 to 5000 | 1000 to 5000 | < 1000 | 1000 to 5000 | 1000 to 5000 | < 1000 | 1000 to 5000
